Data taken from patent US20250084095A1, “Aminopyrimidine Derivatives as Cyclin-Dependent Kinase Inhibitors” (Accutar Biotechnology Inc., priority 2023, published 2025).

The compounds below were run on Phospho-Rb (Ser807/811) in SW1573-CDK6 KO cells (assay: Phospho-Rb expression inhibition in SW1573-CDK6 KO cells quantified by in cell Western). Details: Homo sapiens, 24 hours, read-out: SW1573 CDK6 KO pRb IC50.
Format: cell-based
Procedure: Parental SW1573 cells were obtained from the American Type Culture Collection (ATCC). CDK4 or CDK6 gene in […] cells was knocked out using the CRISPR-Cas9 technology. First, gRNA complex of CDK4 or CDK6 was prepared with Alt-R CRISPR-Cas9 tracrRNA and crRNA CDK4 (5′-[…]-3′ (SEQ ID NO: 4)) or CDK6 (5′-[…]-3′ (SEQ ID NO. 5)) (IDT-Integrated DNA Technologies), and then ribonucleoprotein (RNP) complex of CDK4 or CDK6 was prepared with respective gRNA complex and Alt-R S.p. Cas9 Nuclease V3 (IDT-Integrated DNA Technologies). Next, 5×10^4/10 μL SWJ1573 cells were electroporated with the CDK4 or CDK6 RNP complex and Alt-R Cas9 Electroporation Enhancer using Neon Transfection System (Thermo Fisher). Cells were then plated in a 96-well plate to select single clones for validation of CDK4 or CDK6 knockout by western blot analysis.
MCF7 cells were obtained from American Type Culture Collection (ATCC, HTB-22). SW1573-CDK6 KO and SW1573-CDK4 KO cells were generated by the CRISPR-Cas9 technology. All cells were plated in 96-well plates (VWR #10062-900, or Corning #3904) in 90 uL culture medium at a density of 20,000 cells/well in the respective growth medium containing 10% FBS and 1% Penicillin Streptomycin, and then incubated at 37° C. overnight. The following day, the test compound was administered to the cells by using 1000× compound stock solution prepared in DMSO at various concentrations. 1000× compound stock solution was first diluted in culturing medium to 10×, then 10 uL compound medium was added to each well in the cell plates. After administration of the compound, the cells were then incubated at 37° C. for 24 hours. Upon completion, the cells were washed with PBS briefly. 150 uL/well of 4% formaldehyde was added and the plates were incubated at room temperature for 20 mins. The cells were washed with PBS briefly, and permeabilized with 150 uL/well of ice cold 100% methanol for 10 mins. The cells were washed with PBS briefly and blocked with 100 uL/well LI-COR blocking buffer for 1 hr at room temperature with gentle shaking. The cells were incubated overnight at 4° C. with 50 uL primary antibody rabbit anti-Phospho-Rb (Ser807/811) (1: 500, Cell Signaling, #8516) and anti-Rb (1:200, Santa Cruz, sc-73598) diluted in Intercept Blocking Buffer (LI-COR, #927-60001) containing 0.1% Tween 20. The next day, the cells were washed with 200 uL PBS containing 0.1% Tween 20, 5×5 mins at room temperature with gentle shaking, and incubated with 50 uL secondary antibody, IRDye® 800CW Goat anti-Rabbit IgG (1:1000, LI-COR, #926-32211) and IRDye®680RD Goat anti-Mouse IgG (1:1000, LI-COR, #926-68070), in LI-COR blocking buffer with 0.2% Tween 20 for 1 hr at room temperature with gentle shaking. The cells were washed with 200 uL PBS containing 0.1% Tween 20, 5×5 mins at room temperature with gentle shaking. The cells were washed with PBS for 5 mins. 100 uL fresh PBS was added to each well and the plates were imaged on a LI-COR Odyssey CLX plate reader.

Row | IC50 [nM] | Compound
1 | ≤ 40 | CC(C)n1c(C(C)(C)O)nc2c(F)cc(-c3nc(N[C@@H]4C[C@H]5CO[C@H](O5)[C@H]4O)ncc3Cl)cc21 [Compound 1, (1S,3R,4S,5R)-3-((5-chloro-4-(4-fluoro-2-(2-hydroxypropan-2-yl)-1-isopropyl-1H-benzo[d]imidazol-6-yl)pyrimidin-2-yl)amino)-6,8-dioxabicyclo[3.2.1]octan-4-ol]
2 | ≤ 40 | Cc1nc2c(F)cc(-c3nc(N[C@@H]4C[C@H]5CO[C@H](O5)[C@H]4O)ncc3Cl)cc2n1C(C)C [Compound 25, (1S,3R,4S,5R)-3-((5-chloro-4-(4-fluoro-1-isopropyl-2-methyl-1H-benzo[d]imidazol-6-yl)pyrimidin-2-yl)amino)-6,8-dioxabicyclo[3.2.1]octan-4-ol]
3 | 150 to 1000 | Cc1c(C)n(C(C)C)c2cc(-c3nc(N[C@@H]4C[C@H]5CO[C@H](O5)[C@H]4O)ncc3Cl)ccc2c1=O [Compound 191, 7-(5-chloro-2-(((1S,3R,4S,5R)-4-hydroxy-6,8-dioxabicyclo[3.2.1]octan-3-yl)amino)pyrimidin-4-yl)-1-isopropyl-2,3-dimethylquinolin-4(1H)-one]
4 | 40 to 150 | CNCc1c(C)c(=O)c2ccc(-c3nc(N[C@@H]4C[C@H]5CO[C@H](O5)[C@H]4O)ncc3F)cc2n1C(C)C [Compound 194, 7-(5-fluoro-2-(((1S,3R,4S,5R)-4-hydroxy-6,8-dioxabicyclo[3.2.1]octan-3-yl)amino)pyrimidin-4-yl)-1-isopropyl-3-methyl-2-((methylamino)methyl)quinolin-4(1H)-one]
5 | ≤ 40 | Cc1c(CN(C)C)n(C(C)C)c2cc(-c3nc(N[C@@H]4C[C@H]5CO[C@H](O5)[C@H]4O)ncc3F)ccc2c1=O [Compound 195, 2-((dimethylamino)methyl)-7-(5-fluoro-2-(((1S,3R,4S,5R)-4-hydroxy-6,8-dioxabicyclo [3.2.1]octan-3-yl)amino)pyrimidin-4-yl)-1-isopropyl-3-methylquinolin-4(1H)-one]
6 | 40 to 150 | Cc1c(CN2CCC2)n(C(C)C)c2cc(-c3nc(N[C@@H]4C[C@H]5CO[C@H](O5)[C@H]4O)ncc3F)ccc2c1=O [Compound 196, 2-(azetidin-1-ylmethyl)-7-(5-fluoro-2-(((1S,3R,4S,5R)-4-hydroxy-6,8-dioxabicyclo[3.2.1]octan-3-yl)amino)pyrimidin-4-yl)-1-isopropyl-3-methylquinolin-4(1H)-one]
7 | 40 to 150 | Cc1c(CN2CC(F)C2)n(C(C)C)c2cc(-c3nc(N[C@@H]4C[C@H]5CO[C@H](O5)[C@H]4O)ncc3F)ccc2c1=O [Compound 197, 7-(5-fluoro-2-(((1S,3R,4S,5R)-4-hydroxy-6,8-dioxabicyclo[3.2.1]octan-3-yl)amino)pyrimidin-4-yl)-2-((3-fluoroazetidin-1-yl)methyl)-1-isopropyl-3-methylquinolin-4(1H)-one]
8 | ≤ 40 | Cc1c(CN2[C@@H](C)COC[C@@H]2C)n(C(C)C)c2cc(-c3nc(N[C@@H]4C[C@H]5CO[C@H](O5)[C@H]4O)ncc3F)ccc2c1=O [Compound 199, 2-(((3S,5S)-3,5-dimethylmorpholino)methyl)-7-(5-fluoro-2-(((1S,3R,4S,5R)-4-hydroxy-6,8-dioxabicyclo[3.2.1]octan-3-yl)amino)pyrimidin-4-yl)-1-isopropyl-3-methylquinolin-4(1H)-one]
9 | 40 to 150 | CC(C)n1c(CN2[C@@H](C)COC[C@@H]2C)c(F)c(=O)c2ccc(-c3nc(N[C@@H]4C[C@H]5CO[C@H](O5)[C@H]4O)ncc3Cl)cc21 [Compound 201, 7-(5-chloro-2-(((1S,3R,4S,5R)-4-hydroxy-6,8-dioxabicyclo[3.2.1]octan-3-yl)amino)pyrimidin-4-yl)-2-(((3S,5S)-3,5-dimethylmorpholino)methyl)-3-fluoro-1-isopropylquinolin-4(1H)-one]
10 | 40 to 150 | CC(C)n1c(CN2CC[C@@H](F)C2)c(F)c(=O)c2ccc(-c3nc(N[C@@H]4C[C@H]5CO[C@H](O5)[C@H]4O)ncc3F)cc21 [Compound 202, 3-fluoro-7-(5-fluoro-2-(((1S,3R,4S,5R)-4-hydroxy-6,8-dioxabicyclo[3.2.1]octan-3-yl)amino)pyrimidin-4-yl)-2-(((R)-3-fluoropyrrolidin-1-yl)methyl)-1-isopropylquinolin-4(1H)-one]
11 | 40 to 150 | CC(C)n1c(CN2[C@@H](C)COC[C@@H]2C)c(C(F)F)c(=O)c2ccc(-c3nc(N[C@@H]4C[C@H]5CO[C@H](O5)[C@H]4O)ncc3Cl)cc21 [Compound 204, 7-(5-chloro-2-(((1S,3R,4S,5R)-4-hydroxy-6,8-dioxabicyclo[3.2.1]octan-3-yl)amino)pyrimidin-4-yl)-3-(difluoromethyl)-2-(((3S,5S)-3,5-dimethylmorpholino)methyl)-1-isopropylquinolin-4(1H)-one]
12 | 40 to 150 | CC(C)n1c(CN2[C@@H](C)COC[C@@H]2C)cc(=O)c2ccc(-c3nc(N[C@@H]4C[C@H]5CO[C@H](O5)[C@H]4O)ncc3Cl)cc21 [Compound 205, 7-(5-chloro-2-(((1S,3R,4S,5R)-4-hydroxy-6,8-dioxabicyclo[3.2.1]octan-3-yl)amino)pyrimidin-4-yl)-2-(((3S,5S)-3,5-dimethylmorpholino)methyl)-1-isopropylquinolin-4(1H)-one]
13 | ≤ 40 | Cc1c(CN2[C@@H](C)COC[C@@H]2C)n(C(C)C)c2cc(-c3nc(N[C@@H]4C[C@H]5CO[C@H](O5)[C@H]4O)ncc3Cl)ccc2c1=O [Compound 206, 7-(5-chloro-2-(((1S,3R,4S,5R)-4-hydroxy-6,8-dioxabicyclo[3.2.1]octan-3-yl)amino)pyrimidin-4-yl)-2-(((3S,5S)-3,5-dimethylmorpholino)methyl)-1-isopropyl-3-methylquinolin-4(1H)-one]
14 | ≤ 40 | CC(C)n1c([C@@H]2CC2(F)F)nc2c(F)cc(-c3nc(N[C@@H]4C[C@H]5CO[C@H](O5)[C@H]4O)ncc3Cl)cc21 [Compound 216, (1S,3R,4S,5R)-3-((5-chloro-4-(2-((S)-2,2-difluorocyclopropyl)-4-fluoro-1-isopropyl-1H-benzo[d]imidazol-6-yl)pyrimidin-2-yl)amino)-6,8-dioxabicyclo[3.2.1]octan-4-ol]
15 | ≤ 40 | Cc1c(-c2nc(N[C@@H]3C[C@H]4CO[C@H](O4)[C@H]3O)ncc2Cl)sc2c(C(C)C)cn(C)c(=O)c12 [Compound 223, 2-(5-chloro-2-(((1S,3R,4S,5R)-4-hydroxy-6,8-dioxabicyclo[3.2.1]octan-3-yl)amino)pyrimidin-4-yl)-7-isopropyl-3,5-dimethylthieno[3,2-c]pyridin-4(5H)-one]
16 | ≤ 40 | Cc1c(-c2nc(N[C@@H]3C[C@H]4CO[C@H](O4)[C@H]3O)ncc2C(F)F)sc2c(C(C)C)cn(C)c(=O)c12 [Compound 227, 2-(5-(difluoromethyl)-2-(((1S,3R,4S,5R)-4-hydroxy-6,8-dioxabicyclo[3.2.1]octan-3-yl)amino)pyrimidin-4-yl)-7-isopropyl-3,5-dimethylthieno[3,2-c]pyridin-4(5H)-one]
17 | ≤ 40 | CCn1cc(C(C)C)c2sc(-c3nc(N[C@@H]4C[C@H]5CO[C@H](O5)[C@H]4O)ncc3Cl)c(C)c2c1=O [Compound 230, 5-ethyl-2-(5-chloro-2-(((1S,3R,4S,5R)-4-hydroxy-6,8-dioxabicyclo[3.2.1]octan-3-yl)amino)pyrimidin-4-yl)-7-isopropyl-3-methylthieno[3,2-c]pyridin-4(5H)-one]
18 | ≤ 40 | CC(C)(O)c1cnc2c(F)cc(-c3nc(N[C@@H]4C[C@H]5CO[C@H](O5)[C@H]4O)ncc3Cl)cc2c1Cl [Compound 252, (1S,3R,4S,5R)-3-((5-chloro-4-(4-chloro-8-fluoro-3-(2-hydroxypropan-2-yl)quinolin-6-yl)pyrimidin-2-yl)amino)-6,8-dioxabicyclo[3.2.1]octan-4-ol]
19 | ≤ 40 | CC(C)(O)c1cnc2c(F)cc(-c3nc(N[C@@H]4C[C@H]5CO[C@H](O5)[C@H]4O)ncc3F)cc2c1Cl [Compound 255, (1S,3R,4S,5R)-3-((4-(4-chloro-8-fluoro-3-(2-hydroxypropan-2-yl)quinolin-6-yl)-5-fluoropyrimidin-2-yl)amino)-6,8-dioxabicyclo[3.2.1]octan-4-ol]
